Read-outs that look alike come from different tables or passages of the source.

One data set deals with ZIKV. The data set can be described thus: Plaque assay, anti-ZIKV activity in Vero cells. The following applies: for EC50: read-out: EC50 (anti-ZIKV activity, plaque formation). It is filed as cell-based, Zika virus.
A short description of data set [1]: MTT cytotoxicity assay in Vero cells. It counts as cell-based, African green monkey. The following applies: African green monkey, triplicate, >200 = highest soluble concentration not reaching 50% cytotoxicity. How it is done: (§1) MTT assay was used to detect the toxicity of the compound. Cells were seeded in 96-well plates and cultured overnight. Compounds with different concentrations were added and incubated for 96 h. Then, 20 μl of 5 mg/ml MTT (Sigma-Aldrich, United States) solution was added to each well and kept at 37°C for 4 h. Subsequently, 100 μl of 12% SDS-50% DMF (Sigma-Aldrich, United States) solution was added and incubated overnight at 37°C. After the crystalline formamidine was completely dissolved, the optical density (OD) value was measured using a microplate reader (BioTek, United States) with a wavelength of 570 nm and a reference wavelength of 630 nm.
(§2) The 50% effective concentration (EC50) and 50% cytotoxic concentration (CC50) of the compound were calculated according to the Reed and Muench method, inhibition rate of ZIKV RNA yield- [(1-drug treatment/positive control) × 100]. The data and graphs were processed using GraphPad Prism8 software, expressed as mean ± standard deviation (Mean ± SD), comparison between groups using ANOVA, p < 0.05 was considered statistically significant.
(Formazan colour is commonly taken as a measure of viable cells.)

The test system of a further data set is HCV. On the set-up: method as in Wu et al. (2017). The following applies: Figure 3; ref Wu et al. (2017); read-out: EC50 (anti-HCV); cited from earlier work.
For data set [2] the following is noted: Figure 3; ref Wu et al. (2017); cited from earlier work.
The next data set relates to Vero cells. Put plainly: MTT cytotoxicity assay in Vero cells. It counts as cell-based, African green monkey. The following applies: 96 h, triplicate, >200 = highest soluble concentration not reaching 50% cytotoxicity. The procedure:
as §1, §2

The target in the next data set is T1, ZIKV RdRp (Zika virus, UniProt A0A024B7W1).
T1 construct: we expressed and purified ZIKV RdRp domain; made in house; host or cells: Escherichia coli BL21 (DE3)
T1 sequence (A0A024B7W1 2793-3423): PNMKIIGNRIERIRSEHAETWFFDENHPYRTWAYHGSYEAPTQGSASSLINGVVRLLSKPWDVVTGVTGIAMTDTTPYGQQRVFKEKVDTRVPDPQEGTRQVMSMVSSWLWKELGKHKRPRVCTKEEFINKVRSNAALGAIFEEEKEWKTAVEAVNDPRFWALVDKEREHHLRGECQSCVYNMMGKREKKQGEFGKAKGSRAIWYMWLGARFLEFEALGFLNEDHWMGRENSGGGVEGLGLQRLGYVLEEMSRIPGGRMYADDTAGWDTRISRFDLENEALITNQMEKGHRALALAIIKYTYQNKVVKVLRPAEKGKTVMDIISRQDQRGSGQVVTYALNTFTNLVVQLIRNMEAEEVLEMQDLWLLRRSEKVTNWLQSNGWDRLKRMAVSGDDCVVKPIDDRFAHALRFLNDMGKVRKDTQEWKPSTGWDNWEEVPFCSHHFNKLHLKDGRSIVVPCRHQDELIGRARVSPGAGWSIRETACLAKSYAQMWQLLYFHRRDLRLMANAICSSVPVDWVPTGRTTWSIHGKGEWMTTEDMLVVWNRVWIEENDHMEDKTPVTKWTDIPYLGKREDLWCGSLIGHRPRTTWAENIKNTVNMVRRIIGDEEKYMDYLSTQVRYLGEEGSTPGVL
Details: method as in Sáez-Álvarez et al., 2019. The following applies: positive control drug; ref Sáez-Álvarez et al., 2019; cited from earlier work.

The mark [3] stands for this setting: Zika virus, plaque assay, independently in triplicate.
Setting [4] is: plaque assay, independently in triplicate.

`CCc1c(C2CCCCC2)nc(SCC(=O)Nc2ccc(F)cc2)[nH]c1=O` [Compound 4k, 2-[(4-cyclohexyl-5-ethyl-6-oxo-1,6-dihydropyrimidin-2-yl)thio]-N-(4-fluorophenyl)acetamide]: the melting point lay in the range of 273 to 274 °C. Also, the EC50 with ZIKV (setting [3]) was greater than 50 µM. Further, the CC50 at 96 h in data set [1] was greater than 200 µM.
For the compound `CCc1c(CC2CCCCC2)nc(SCC(=O)C(O)c2ccc(F)cc2)[nH]c1=O` (stereo not shown) [compound B, reference compound], the EC50 in the data set with HCV is 2.02 µM. For the same compound, in data set [2], the CC50 is 196 µM.
In turn, `CCc1c(C2CCCCC2)nc(SCC(=O)Nc2cccc(OC)c2)[nH]c1=O` [Compound 4c, 2-[(4-cyclohexyl-5-ethyl-6-oxo-1,6-dihydropyrimidin-2-yl)thio]-N-(3-methoxyphenyl)acetamide] displayed a melting point of 207 to 209 °C. Moreover, in the data set on ZIKV (setting [3]), the EC50 was greater than 50 µM. For the same compound, the CC50 at 96 h in data set [1] was 109 ± 3.19 µM.
`NC(=O)c1ncn([C@@H]2O[C@H](CO)[C@@H](O)[C@H]2O)n1` [Ribavirin, reference compound]: the “SI (selectivity index, CC50/EC50 ratio)” value with ZIKV is recorded as greater than 4.09. Also, the EC50 with ZIKV (setting [3]) came to 48.9 ± 3.42 µM. The compound further displayed a CC50 at 96 h in data set [1] greater than 200 µM.
Compound `CCc1c(C2CCCCC2)nc(SCC(=O)Nc2cccc(F)c2)[nH]c1=O` [Compound 4i, 2-[(4-cyclohexyl-5-ethyl-6-oxo-1,6-dihydropyrimidin-2-yl)thio]-N-(3-fluorophenyl)acetamide] had a melting point of 184 to 187 °C. Besides, the “SI (selectivity index, CC50/EC50 ratio)” value in the data set on ZIKV is greater than 10.33. Also, the EC50 in the data set with ZIKV (setting [3]) was 19.4 ± 0.38 µM. Moreover, in data set [1], the CC50 at 96 h was greater than 200 µM.
For `CCc1c(CC2CCCCC2)nc(SCC(=O)Nc2cc(F)ccc2OC)[nH]c1=O` [Compound 4z, 2-{[4-(cyclohexylmethyl)-5-ethyl-6-oxo-1,6-dihydropyrimidin-2-yl]thio}-N-(5-fluoro-2-methoxyphenyl)acetamide], the melting point lay in the range of 182 to 183 °C. In the data set with ZIKV (setting [4]), the “EC50 (anti-ZIKV activity, plaque formation)” value is “did not show activity” and the EC50 is greater than 50 µM. In the data set with Vero cells, this compound registered a CC50 greater than 200 µM.
Turning to `CCc1c(C2CCCCC2)nc(SCC(=O)Nc2ccccc2OC)[nH]c1=O` [Compound 4a, 2-[(4-cyclohexyl-5-ethyl-6-oxo-1,6-dihydropyrimidin-2-yl)thio]-N-(2-methoxyphenyl)acetamide], the concentration for a half-maximal effect (EC50) with ZIKV (setting [3]) was greater than 50 µM. This compound also yielded a CC50 at 96 h in data set [1] greater than 200 µM.
`CCc1c(C2CCCCC2)nc(SCC(=O)Nc2ccccc2F)[nH]c1=O` [Compound 4g, 2-[(4-cyclohexyl-5-ethyl-6-oxo-1,6-dihydropyrimidin-2-yl)thio]-N-(2-fluorophenyl)acetamide] showed a melting point of 206 to 208 °C. Moreover, the “SI (selectivity index, CC50/EC50 ratio)” value in the data set on ZIKV is on record as greater than 12.27. The EC50 in the data set on ZIKV (setting [3]) worked out at 16.3 ± 1.31 µM. Besides, in data set [1], the CC50 at 96 h is greater than 200 µM.
On to `CCc1c(C2CCCCC2)nc(SCC(=O)Nc2ccc(OC)cc2)[nH]c1=O` [Compound 4e, 2-[(4-cyclohexyl-5-ethyl-6-oxo-1,6-dihydropyrimidin-2-yl)thio]-N-(4-methoxyphenyl)acetamide], for which the EC50 in the data set with ZIKV (setting [3]) is greater than 50 µM. The compound further displayed a CC50 at 96 h in data set [1] greater than 200 µM.
The compound `CCc1c(C2CCCCC2)nc(SCC(=O)Nc2cc(F)ccc2F)[nH]c1=O` [Compound 4u, 2-[(4-cyclohexyl-5-ethyl-6-oxo-1,6-dihydropyrimidin-2-yl)thio]-N-(2,5-difluorophenyl)acetamide] registered a melting point of 190 to 192 °C. Moreover, in the data set with ZIKV (setting [3]), the EC50 was greater than 50 µM. In data set [1], this compound gave a CC50 at 96 h greater than 200 µM.
Take Heparin: the “inhibition of ZIKV RdRp activity” value at ZIKV RdRp is listed as “significantly inhibited”.
`CCc1c(C2CCCCC2)nc(SCC(=O)Nc2ccc(F)cc2F)[nH]c1=O` [Compound 4s, 2-[(4-cyclohexyl-5-ethyl-6-oxo-1,6-dihydropyrimidin-2-yl)thio]-N-(2,4-difluorophenyl)acetamide] had a melting point of 227 to 229 °C. Also, the EC50 in the data set with ZIKV (setting [3]) was greater than 50 µM. The compound also displayed a CC50 at 96 h in data set [1] greater than 200 µM.

As a reminder, the EC50 is the concentration that produces a half-maximal response. What is called melting point is the temperature, or range, at which the solid turns liquid.

The values are drawn from article PMC9605737, “Identification of 6ω-cyclohexyl-2-(phenylamino carbonylmethylthio)pyrimidin-4(3H)-ones targeting the ZIKV NS5 RNA dependent RNA polymerase” (Frontiers in Chemistry, 2022).
